Assays:
LjM ccB = assay: C-terminal thioesterification of MccA-N7G peptides by L. johnsonii MccB (LC-MS); assay type: biochemical; conditions: LjMccB, ATP, Mesna, within 16 h
M ccB [1] = assay: MccB-catalyzed C-terminal thioesterification / Cys ligation of TeCH-tag fusion proteins (intact protein LC-MS); assay type: biochemical, E. coli
Experimental: M ccB-mediated ligation of GFP-MccA-N7G protein substrates. GFP-M ccA-N7G variant (50 μM) was incubated with 5 μM MccB, 5 mM ATP, and the appropriate concentration of cysteine or Mesna/TCEP in reaction buffer (25 mM Tris pH 8.0, 10 mM M gCl2). Reactions were incubated at room temperature for the indicated times. For labeling time course experiments, reactions were quenched with the addition of an equivalent volume of 0.6% TFA.

M ccB [2] = assay: One-pot expressed protein ligation of GFP-TeCH with N-terminal Cys peptide CGAGS-azidoAla; assay type: biochemical, E. coli; conditions: MccB, ATP, Mesna
Ubc9 = molecular target: T1, Ubc9 (Homo sapiens, UniProt P63279); assay: Ubc9-catalyzed lysine acylation (LACE) of GFP-LACE-tag with MccB-generated thioesters; assay type: biochemical
T1 construct: Ubc9; Calc: 20,632 Da (M et loss); Observed: 20,632 Da, 20,810 Da (N-gluconylation); made in house; host or cells: E. coli BL21 (DE3)
T1 sequence (P63279 with tags, fused parts or gaps): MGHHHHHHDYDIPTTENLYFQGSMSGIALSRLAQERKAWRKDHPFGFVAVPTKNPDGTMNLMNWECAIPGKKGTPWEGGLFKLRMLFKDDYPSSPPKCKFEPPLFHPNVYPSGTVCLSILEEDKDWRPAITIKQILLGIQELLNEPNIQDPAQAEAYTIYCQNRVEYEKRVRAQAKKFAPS
Experimental: For larger scale synthesis of MLGLRGG-Mes (HsLACE3-M es) (SEQ ID NO: 88), identical reaction conditions and reagent concentrations were used in a volume of […]. Reactions were quenched by addition of trifluoroacetic acid (TFA) to 1% final concentration and were desalted on SOLA HRP C18 solid-phase extraction columns (10 mg format, Thermo Fisher Scientific). Columns were conditioned with 100% acetonitrile ([…]) and equilibrated with 0.1% TFA (2× 1 mL). The acidified sample was then loaded onto the column. The column was washed with 0.1% TFA (2×1 mL) and eluted with 80% acetonitrile/20% water ([…]). The eluted peptide thioester was dried in a vacuum concentrator (SpeedV ac SPD 130DLX, Thermo Fisher Scientific) and dissolved in water. The recovered peptide was quantified using the Pierce Quantitative Fluorometric Peptide A ssay Kit (Thermo Fisher Scientific). Typical recovery from desalting was 50%.
Lysine acylation using conjugating enzymes (LACE) of GFP-LACE-tag using M ccB-generated thioesters. GFP-LACE-tag ([…]), U bc9 ([…]), MLGLRGG-Mes (SEQ ID NO: 88) or other C-terminal thioesters as indicated in the text ([…]) were incubated in reaction buffer (100 mM HEPES, pH 8.0, 50 mM K CI) at 30° C. for 16 h. For pH optimization, reaction buffer was either 100 mM HEPES, pH 7.6, 50 mM KCl or 100 mM HEPES, pH 8.0, 50 mM KCl. […]

E. coli M ccB [3] = assay: Enzyme-coupled pyrophosphate (PPi) release assay, E. coli MccB; assay type: biochemical
From the text: FIG. 31. Enzyme-coupled pyrophosphate assay for detection of M ccB-catalyzed pyrophosphate release. M ccB-catalyzes release of pyrophosphate, which is converted to phosphate by inorganic pyrophosphatase (PPiase). Purine nucleoside phosphorylase (PN Pase) uses phosphate as a substrate to convert 2-amino-6-mercapto-7-methylpurine ribonucleoside (M ESG) to ribose 1-phosphate and 2-amino-6-mercapto-7-methylpurine, which absorbs at 360 nm.
Purine nucleoside phosphorylase (PNP)/inorganic pyrophosphate (IP)-coupled kinetic assays. The kinetics of M ccB-catalyzed adenylation were characterized using an enzyme-coupled assay for detecting formation of pyrophosphate EnzCheck Pyrophosphate Assay Kit (Thermo Fisher Scientific) (FIG. 31). To screen M ccB for adenylation activity with C-terminal variants of MccA, 5 μM of the appropriate MccB variant was incubated with 0.25 mM of each M ccA variant in a reaction with 0.25 mM ATP, 5 mM M gCl2, 0.5 U/mL purine nucleoside phosphorylase (PNP), and 0.5 U/mL inorganic pyrophosphatase (IP). To screen E. coli, H. pylori, and L. johnsonii M ccB homologs for adenylation activity with MccA homologs, 5 μM of the appropriate MccB enzyme was incubated with 0.25 mM of each M ccA variant in a reaction with 0.25 mM ATP, 5 mM M gCI2, 0.5 U/mL purine nucleoside phosphorylase (PNP), and 0.5 U/mL inorganic pyrophosphatase (IP). Reactions containing HpM ccA-N7G and LjM ccA-N 7G peptides also contained 5 mM M esna and 5 mM TCEP. To collect steady-state kinetics data for individual peptide substrates, the peptide concentration was varied from 0-600 μM in a reaction with 5 μM MccB, 0.25 mM ATP, 5 mM MgCl2, 0.5 U/mL purine nucleoside phosphorylase (PNP), and 0.5 U/mL inorganic pyrophosphatase (IP). […] We therefore repeated measurements for the MccA-N7G peptide using an MccB concentration of […] and a substrate concentration range from 0-100 μM. Reactions were initiated with the addition of M ccB and absorbance at 360 nm was monitored using a Tecan Infinite M 200 plate reader. Initial rates of pyrophosphate production were calculated based on the initial rate of absorbance change and the resulting purine analog extinction coefficient (11,000 M-1 cm-1). Reactions were carried out in triplicate and data analysis was performed using GraphPad Prism 10.

E. coli M ccB [4] = assay: LC-TOF MS analysis of MccB-catalyzed AMPylation of MccA variants; assay type: biochemical; conditions: HPLC-MS assay
Experimental: LC-TOF MS analysis of M ccB reactions with synthetic peptide substrates. […] Reactions were incubated for 16 hours at room temperature and quenched with addition of an equivalent volume of 0.6% TFA. These reaction conditions were used for M ccBs from E. coli, H. pylori, L. johnsonii, and H. somni.
LC-TOF MS analysis of M ccB-catalyzed N-AM Pylation of M ccA positional scanning peptide library. MccA variants were synthesized individually in-house (according to Solid-phase peptide synthesis) or were purchased from Peptide2.0. […] Reactions were incubated for 16 hours at room temperature and quenched with addition of an equivalent volume of 0.6% TFA. […] Percent conversion was calculated using peak areas from substrate and product EICs. Raw data are available in the Dryad repository at DOI: 10.5061/dryad.c59zw3rkb.

M ccB [5] = assay: MccB-catalyzed native chemical ligation of MccA-N7G with Mesna and Cys-Trp; assay type: biochemical, E. coli; conditions: both Mesna and Cys-Trp in the reaction, 4 hours
Experimental: MccA-N7G thioester exchange with N-terminal Cys peptide. C-terminal thioester was prepared in reactions containing 250 μM MccA-N7G, 5 μM MccB, 5 mM ATP, and 5 mM Mesna/TCEP in reaction buffer (25 mM Tris pH 8.0, 10 mM M gCl2). A fter incubating for 16 hours at room temperature, 20 mM Cys-Trp peptide was added to each reaction and incubated for an additional 4 hours. Reactions were quenched with the addition of an equivalent volume of 0.6% TFA.

[6] = molecular target: T2, MccA-N7G (E. coli TeCH-tag peptide MRTGNAG)
T2 chain: MRTGNAG

Sequence of LjM ccB (as listed by the source): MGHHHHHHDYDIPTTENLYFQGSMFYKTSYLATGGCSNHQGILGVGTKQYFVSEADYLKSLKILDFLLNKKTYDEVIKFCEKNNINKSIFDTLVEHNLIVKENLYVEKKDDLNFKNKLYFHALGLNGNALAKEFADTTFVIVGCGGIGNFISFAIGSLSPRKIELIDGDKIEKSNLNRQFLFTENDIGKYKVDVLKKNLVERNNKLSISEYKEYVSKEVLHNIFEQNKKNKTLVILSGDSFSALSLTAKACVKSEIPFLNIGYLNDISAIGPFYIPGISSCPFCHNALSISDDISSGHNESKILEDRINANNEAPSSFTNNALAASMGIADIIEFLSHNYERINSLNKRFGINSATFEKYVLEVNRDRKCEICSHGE

In the case of MHRIM KG (MHRIMKG) [LjM ccA-N7G], the “conversion to C-terminal thioester, yield” value (LjM ccB) is reported as over 97%.

In the case of “GFP-TeCH-tag: Cys-free GFP fused to MccA-N7G TeCH-tag (SEQ ID NO: 73)”, the “conversion to the Mesna thioester” value (M ccB [1]; 5 mM Mesna, 5 mM ATP, 30 min) is reported as “near-quantitative”, the Cys ligation yield (M ccB [1]; ATP (5 mM), Cys (5 mM), 1 h) is reported as 99% and the “time to complete conversion to thioester” value (M ccB [1]; ATP (5 mM), Mesna (5 mM)) is reported as 1 h. The “modification with azide-bearing peptide CGAGS-3-azido-Ala” value (M ccB [2]) was “quantitatively modified”.

With “MLGLRGG (listed as Histophilus somni) [HsLACE3]” the “modification of the LACE-tagged protein” value (Ubc9; HsMccB-generated thioester after C18 spin column thiol removal) was 94% and the “conversion to modified GFP-LACE” value (Ubc9; one-pot and telescoped HsMccB/Ubc9 reactions) was 1-15%.

In the case of MRTGNAG [MccA-N7G], the “stimulation of PPi formation” value (E. coli M ccB [3]; MccA C-terminal variant as substrate for MccB) is reported as “substantial stimulation”, the Km (E. coli M ccB [3]; initial fitting, 5 μM MccB, peptide 0-600 μM, pyrophosphate release, read-out: apparent KM) is reported as 8.9 µM and the “formation of stably AMPylated product” value (E. coli M ccB [4]) is reported as “no stably A M Pylated product was observed”. The “conversion to MccA-N7G-CW, yield” value (M ccB [5]) was 82%.

B1: E. coli MccB (protein)
chain: MGHHHHHHDYDIPTTENLYFQGSMDYILGRYVKIARYGSGGLVGGGGKEQYVEDLALWENIIKTAYCFITPSSYTAALETVNIPEKDFSNCFRFLKENFFIIPSEYNNSTENNRYSRNFLHYQSYGANPVLVQDKLKDAKVVILGCGGIGNHVSVILATSGIGEIILIDNDQIENTNLTRQVLFSENDVGKNKTEVIKRELLKRNSEISVSEIALNINDYTDLHKVPEADIWVVSADHPFNLINWVNKYCVRANQPYINAGYVNDIAVFGPLYVPGKTGCYECQKVVADLYGSEKENIDHKIKLINSRFKPATFAPVNNVAAALCAADVIKFIGKYSEPLSLNKRIGIWSDEIKIHSQNMGRSPVCSVCGNRM
With B1 the “apparent KM, enzyme-coupled pyrophosphate release assay (steady-state kinetics)” value [6] was 8.9 ± 0.9 µM.

Reference: patent US20250346938A1, “ATP-DEPENDENT C-TERMINAL MODIFICATION OF POLYPEPTIDES” (Wisconsin Alumni Research Foundation, priority 2024, published 2025)
